2 compounds from US20190209585A1, “COMBINATION THERAPY COMPRISING A POLYUNSATURATED KETONE AND A SECOSTEROID” (Avexxin AS, priority 2016, published 2019) can be followed below.

The subject of one data set is HaCaT cells. In words: Resazurin assay of HaCaT keratinocyte cell proliferation and viability. The protocol:
The spontaneously immortalized, nontumorigenic skin keratinocyte cell line HaCaT was maintained in DMEM supplemented with 5% (v/v) FBS, 0.3 mg/ml glutamine and 0.1 mg/ml gentamicin at 37° C. with 5% CO2 in a humidified atmosphere. Subculture using trypsin-EDTA was performed every 3-4 days with split ratio of 1:3-1:4 to ensure actively proliferating cells.
(§1) Cells were seeded in 96 well plates in fully supplemented medium at a density of 2500 cells per well. Following 72 hours of cultivation, the cells were starved of serum in 0.25% FBS/DMEM overnight to halt proliferation, synchronize and to increase cell sensitivity to treatment. On day 4, the cells were treated with cPLA2α inhibitor Compound A and vitamin D analogue Calcipotriol hydrate (Sigma Aldrich #C4369) and left to incubate for […] in incubator at 37° C. with 5% CO2 in a humidified atmosphere before fluorescence was read at 544 nm excitation and 590 nm emission wavelength. The cells were observed under the microscope to evaluate possible morphology changes and signs of stress before addition of resazurin. The experiments were performed in series of 8 wells per treatment and repeated 2-3 times.
as §1, with “hour” for “hours”, “synchronize the cells” for “synchronize”, “corticosteroid Betamethasone 17, 21-dipropionate (Sigma Aldrich #B1152)” for “cPLA2α inhibitor Compound A”, “#C4369) for 24 hours. On day 5, resazurin was added according to the manufacturer's instruction (RnD Systems, UK)” for “#C4369)”
as §1, with “3000” for “2500”, “48-72 hour” for “72 hours”, “synchronize the cells” for “synchronize”, “Next day,” for “On day 4,”, “compound” for “cPLA2α inhibitor Compound”, “or calcipotriol for 24 hours. Resazurin was added next day according to the manufacturer's instruction (RnD Systems, UK)” for “and vitamin D analogue Calcipotriol hydrate (Sigma Aldrich #C4369)”
The spontaneously immortalized, nontumorigenic skin keratinocyte cell line HaCaT was maintained in DMEM supplemented with 5% (v/v) FBS, 0.3 mg/ml glutamine and 0.1 mg/ml gentamicin at 37° C. with 5% CO2 in a humidified atmosphere. Subculture using trypsin-EDTA was performed every 3-4 days with split ratio of 1:4 to ensure actively proliferating cells.
Cells were seeded in 96 well plates in fully supplemented medium at a density of 3000 cells per well. Following 72 hour of cultivation, the cells were starved of serum in 0.25% FBS/DMEM overnight to halt proliferation, synchronize the cells and to increase cell sensitivity to treatment. Next day, the cells were treated with Compound A, vitamin D analogue Calcipotriol and corticosteroid hormone receptor agonist Betamethasone dipropionate for 24 hours.
Background: Alamar Blue is a resazurin reagent that responds to reducing activity.

Data set [1] deals with PGE2 production in PBMC challenged with LPS. The data set is described as follows: PGE2 enzyme immunoassay of supernatants of PBMC challenged with LPS. The data set is classed as cell-based, human. As to the method: Blood from healthy, consenting blood donors was collected at St. Olays Hospital HF, Trondheim, Norway.
From each donor, 2×6 ml heparin tubes with blood were used. Peripheral blood mononuclear cells (PBMC) were isolated using 50 mL SepMate™ tubes ([…]™ Technology, UK) and Lymphoprep™ (Fresenius Kabi, N) density gradient according to the manufacturers instructions.
PBMC were resuspended in RPMI-1640 cell culture medium complemented with 5% heat-inactivated fetal bovine serum (FBS), 0.03% glutamine, 0.01 mg/mL gentamicin and 3.4 ppm β-mercaptoethanol (all reagents from Sigma-Aldrich). […]
PGE2 enzyme immunoassay analysis of PBMC supernatants was performed according to the kit protocol (Cayman Chemicals, #514010, USA). […] The plate was read at OD 420 nm using a Cytation 5 imaging reader from BioTek and data acquired with the corresponding software Gen5 2.09. A four-parameter logistic model was fit to the absorbance data to determine PGE2 levels using the Cayman PGE2 protocol. […]
Accordingly, we isolated peripheral blood mononuclear cells, treated them with various doses and combinations of Compound A and calcipotriol and finally added LPS as a trigger to mount a broad inflammatory response. The cell supernatants collected following 72 hrs of LPS stimulation were next analyzed with respect to levels of PGE2, a key proinflammatory mediator close to the cPLA2α target.

“Also recorded” adds a separate entry of the source.

For the compound `CCC(=O)OCC(=O)[C@@]1(OC(=O)CC)[C@@H](C)C[C@H]2[C@@H]3CCC4=CC(=O)C=C[C@]4(C)[C@@]3(F)[C@@H](O)C[C@@]21C` [Betamethasone, Betamethasone 17, 21-dipropionate], the “reduction of cell proliferation and viability” value in the data set with HaCaT cells (Example 2, 24 hours, 50 μM Betamethasone alone) is 10%.

For the compound `C=C1/C(=C\C=C2/CCC[C@]3(C)[C@@H]([C@H](C)/C=C/[C@@H](O)C4CC4)CC[C@@H]23)C[C@@H](O)C[C@@H]1O` [Calcipotriol], the “effect on proliferation and viability of HaCaT cells” value in the data set on HaCaT cells (Example 1, 10 μM, alone) is on record as “little or no effect”. The “effect on HaCaT cell viability” value in the data set on HaCaT cells (Example 3/4, 24 hours, 15 μM, alone) was “affect cell viability; also recorded: reduced cell viability”; in the data set with HaCaT cells (Example 3, 24 hours, doses 1-10 μM, alone), “no signs of impairment in cell viability”; in the data set on HaCaT cells (Example 4, 10 μM, alone), “no signs of impairment in cell viability”. For the same compound, in the data set on HaCaT cells (Homo sapiens, HaCaT, 24 h, read-out: reduction of cell proliferation and viability), the cytotoxicity at 10 µM worked out at 20%. Besides, in data set [1] (calcipotriol 0.5 μM alone), the “increase of PGE2” value turned out to be 18%. In addition, the “effect on PGE2 levels” value in data set [1] (high doses of calcipotriol alone (<0.5 μM)) is on record as “PGE2 levels increased”.
